Results on 58 compounds are retold here after patent US20160075653A1, “NEMATICIDAL N-(PHENYLCYCLOALKYL)CARBOXAMIDES AND N-(PHENYLCYCLOALKYL)THIOCARBOXAMIDES” (BAYER CROPSCIENCE AKTIENGESELLSCHAFT, priority 2013, published 2016).

A short description of one data set: Measurement of log P values by HPLC on reversed phase columns (methods [a] pH 2.3, [b] pH 2.7, [c] pH 7.8). The data set is classed as physicochemical. The following applies: HPLC on reversed phase column, method [b], pH 2.7. The procedure:
Measurement of log P-Values:
Measurement of log P Values was Performed According EEC Directive 79/831 Annex V.A8 by HPLC (High Performance Liquid
Chromatography) on reversed phase columns with the following methods: ^[a] Measurement was done at pH 2.3 with 0.1% phosphoric acid and acetonitrile as eluent with a linear gradient from 10% acetonitrile to 95% acetonitrile. ^[b] measurement of LC-MS was done at pH 2.7 with 0.1% formic acid in water and with acetonitrile (contains 0.1% formic acid) as eluent with a linear gradient from 10% acetonitrile to 95% acetonitrile. ^[c] Measurement with LC-MS was done at pH 7.8 with 0.001 molar ammonium hydrogen carbonate solution in water as eluent with a linear gradient from 10% acetonitrile to 95% acetonitrile.
Calibration was done with linear alkan-2-ones (with 3 to 16 carbon atoms) with known log P-values (measurement of log P values using retention times with linear interpolation between successive alkanones). Lambda-max-values were determined using UV-spectra from 200 nm to 400 nm and the peak values of the chromatographic signals.
`O=C(N[C@@H]1CC[C@H]1c1ccccc1C(F)(F)F)c1ccccc1[N+](=O)[O-]` (relative stereo) [Example 637]: the logP is 3.13^[b]. The same measure, in the same setting: the value for `O=C(N[C@@H]1CC[C@H]1c1cccc(F)c1C(F)(F)F)c1ccccc1Cl` (relative stereo) [Compound 598] was 3.50^[b]; that for `O=C(N[C@@H]1CC[C@@H]1c1ccc(Cl)cc1C(F)(F)F)c1ccccc1` (relative stereo) [Example 680] was 3.51^[b]. Still for that read-out and setting: as for `O=C(N[C@@H]1CC[C@@H]1c1ccc(Cl)cc1C(F)(F)F)c1ccccc1[N+](=O)[O-]` (relative stereo) [Example 713], the figure is 3.36^[b]; as for `O=C(N[C@@H]1CC[C@H]1c1ccccc1C(F)(F)F)c1nccnc1Cl` (relative stereo) [Example 622], 2.98^[b].

Turning to `O=C(NC1CCC1c1ccc(Cl)cc1C(F)(F)F)c1sccc1I` (stereo not shown) [Example 711], the logP is 4.28^[b].

On to `O=C(N[C@@H]1CC[C@H]1c1ccc(Cl)cc1C(F)(F)F)c1ccc(Cl)cc1` (relative stereo) [Example 706], for which the logP was 4.43^[b].

On to `O=C(N[C@@H]1CC[C@H]1c1ccccc1C(F)(F)F)c1cccnc1` (relative stereo) [Example 618], for which the logP was 2.26^[b].

Consider `CC1=C(C(=O)NC2CCC2c2ccccc2C(F)(F)F)S(=O)(=O)CCO1` (stereo not shown) [Example 606], for which the logP was 2.49^[b]. Same read-out and setting: as for `O=C(N[C@@H]1CC[C@H]1c1cccc(F)c1C(F)(F)F)c1nccnc1Cl` (relative stereo) [Example 646], the figure is 3.10^[b]; as for `O=C(N[C@@H]1CC[C@@H]1c1ccc(Br)cc1C(F)(F)F)c1nccnc1C(F)(F)F` (relative stereo) [Example 659], 3.72^[b]. Consider `O=C(N[C@@H]1CC[C@@H]1c1ccc(Cl)cc1Cl)c1cccnc1Cl` (relative stereo) [Example 663], for which the logP is 2.84^[b].

For `O=C(N[C@@H]1CC[C@H]1c1cccc(F)c1C(F)(F)F)c1cccnc1` (relative stereo) [Example 664], the logP is 2.38^[b].

The data set is the same for the next values; noted with them: HPLC on reversed phase column, method [c], pH 7.8.
Regarding `CC1=C(C(=O)NC2CCC2c2ccccc2C(F)(F)F)S(=O)(=O)CCO1` (stereo not shown) [Example 606], the logP was 2.45^[c];. Same read-out and setting: as for `O=C(N[C@@H]1CC[C@@H]1c1ccc(Br)cc1C(F)(F)F)c1nccnc1C(F)(F)F` (relative stereo) [Example 659], the figure is 3.62^[c];.

The data set is the same for the next values; noted with them: HPLC on reversed phase columns, method [b], pH 2.7.
Consider `Cn1ccc(I)c1C(=O)N[C@@H]1CCC[C@@H]1c1ccc(F)c(F)c1` (relative stereo) [Example 100], for which the logP is 3.83^[b]. The same measure, in the same setting: the value for `Cn1cc(C(=O)N[C@@H]2CCC[C@H]2c2ccc(F)c(F)c2)c(C(F)F)n1` (relative stereo) [Example 125] was 2.88^[b]. Same read-out and setting: the value for `O=C(N[C@@H]1CCC[C@@H]1c1ccc(F)c(F)c1)c1ccccc1OC(F)(F)F` (relative stereo) [Example 95] was 3.76^[b]; that for `CC(F)c1nn(C)cc1C(=O)NC1CCCC1c1ccc(F)c(F)c1` (mixture of isomers) [Example 126] was 2.84^[b]; that for `Cc1nn(C)cc1C(=O)NC1CC1c1ccccc1` (stereo not shown) [Example 6] was 1.70^[b]. The same measure, in the same setting: as for `O=C(N[C@@H]1CCC[C@H]1c1ccc(F)c(F)c1)c1ccccc1F` (relative stereo) [Example 105], the figure is 3.35^[b]. Regarding `Cc1nc(C(F)(F)F)c(C(=O)NC2CC2c2ccc(Cl)cc2)s1` (stereo not shown) [Example 28], the logP was 4.35^[b]. In the case of `O=C(N[C@@H]1CCC[C@@H]1c1ccc(F)c(F)c1)c1sccc1I` (relative stereo) [Example 101], the logP was 3.79^[b]. The same measure, in the same setting: as for `O=C(N[C@@H]1CCC[C@@H]1c1ccc(F)c(F)c1)c1snc(Cl)c1Cl` (relative stereo) [Example 121], the figure is 4.19^[b]; as for `Cn1cc(C(=O)N[C@@H]2CCC[C@@H]2c2ccc(F)c(F)c2)c(=O)[nH]1` (relative stereo) [Example 113], 2.00^[b]; as for `O=C(N[C@@H]1CCC[C@@H]1c1ccc(F)c(F)c1)c1cnccc1C(F)(F)F` (relative stereo) [Example 89], 2.92^[b]. `Cc1nn(C)c(C)c1C(=O)NC1CC1c1ccc(Cl)cc1` (stereo not shown) [Example 13]: the logP was 2.89^[b]. The same measure, in the same setting: as for `CCOc1nn(C)cc1C(=O)N[C@@H]1CCC[C@@H]1c1ccc(F)c(F)c1` (relative stereo) [Example 54], the figure is 2.78^[b].

The data set is the same for the next values; noted with them: HPLC reversed phase, method [b] (pH 2.7).
In the case of `Cc1nc(C(F)(F)F)c(C(=O)N[C@@H]2CC[C@@H]2c2c(F)cccc2C(F)(F)F)s1` (relative stereo) [Example 573], the logP was 3.47^[b]. As for `O=C(N[C@@H]1C[C@@H]1c1ccc(Cl)cc1Cl)c1cccnc1` (relative stereo) [Example 583], the logP is 2.06^[b]. Take `O=C(NC1CCCC1c1ccc(Cl)cc1Cl)c1cccnc1Cl` (stereo not shown) [Example 356]: the logP is 3.20^[b]. Same read-out and setting: the value for `O=C(NC1CCCCC1c1ccccc1C(F)(F)F)c1cccnc1C(F)(F)F` (stereo not shown) [Example 375] was 3.68^[b]; that for `Cc1ccccc1C(=O)NC1CC1c1ccc(Cl)cc1` (stereo not shown) [Compound 276] was 2.76^[b]; that for `O=C(N[C@@H]1CC[C@H]1c1ccccc1Cl)c1cccnc1Cl` (relative stereo) [Example 533] was 3.65^[b].

For `Cn1cc(C(=O)NC2CCC2c2ccc(Cl)cc2Cl)c(C(F)F)n1` (stereo not shown) [Example 469], the logP is 2.95^[b].

`Cc1nc(C)c(C(=O)NC2CCCCC2c2ccccc2Cl)s1` (stereo not shown) [Example 376]: the logP is 3.24^[b]. `O=C(NC1CCCCC1c1ccccc1Cl)c1cccnc1Cl` (stereo not shown) [Example 380]: the logP is 3.16^[b]. Same read-out and setting: as for `Cc1nn(C)cc1C(=O)NC1CCCCC1c1ccccc1Br` (stereo not shown) [Example 402], the figure is 2.74^[b]. The same measure, in the same setting: the value for `O=C(N[C@@H]1CCC[C@H]1c1ccccc1C(F)(F)F)c1cccnc1C(F)(F)F` (relative stereo) [Example 289] was 3.27^[b].

For the compound `O=C(NC1CCC1c1ccccc1C(F)(F)F)c1ccccc1Cl` (stereo not shown) [Example 433], the logP is 3.01^[b]. As to `O=C(N[C@@H]1CC[C@@H]1c1ccc(F)cc1C(F)(F)F)c1cccc(Cl)c1` (relative stereo) [Example 511], the logP is 3.65^[b]. With `Cn1cc(C(=O)N[C@@H]2CC[C@H]2c2ccccc2Cl)c(C(F)F)n1` (relative stereo) [Example 262], the logP is 2.72^[b].

Take `O=C(N[C@@H]1CC[C@H]1c1ccc(F)cc1C(F)(F)F)c1ccccc1I` (relative stereo) [Compound 502]: the logP was 3.76^[b].

With `Cc1nc(C(F)(F)F)c(C(=O)N[C@@H]2CCC[C@@H]2c2ccc(OC(C)C)cc2)s1` (relative stereo) [Example 342], the logP was 3.80^[b]. On the same count and under the same terms, as for `O=C(NC1CCCCC1c1ccc(C(F)(F)F)cc1)c1ccccc1C(F)(F)F` (stereo not shown) [Example 365], the figure is 4.12^[b]; as for `O=C(NC1CCCC1c1ccc(C(F)(F)F)cc1)c1ccccc1Cl` (stereo not shown) [Example 305], 3.68^[b]; as for `O=C(NC1CCCCC1c1c(F)cccc1F)c1ccccc1C(F)(F)F` (stereo not shown) [Example 399], 3.87^[b]. Regarding `O=C(NC1CCCCCC1c1ccccc1C(F)(F)F)c1ccccc1C(F)(F)F` (stereo not shown) [Example 420], the logP is 4.55^[b].

Staying with this data set, now noted: HPLC reversed phase, method [c] pH 7.8.
Turning to `Cc1ccccc1C(=O)NC1CC1c1ccc(Cl)cc1` (stereo not shown) [Compound 276], the logP is 2.70^[c];. On the same count and under the same terms, the value for `Cc1nc(C(F)(F)F)c(C(=O)N[C@@H]2CCC[C@@H]2c2ccc(OC(C)C)cc2)s1` (relative stereo) [Example 342] was 3.71^[c];; that for `O=C(NC1CCCCC1c1ccc(C(F)(F)F)cc1)c1ccccc1C(F)(F)F` (stereo not shown) [Example 365] was 4.05^[c];.

In the case of `O=C(NC1CCCC1c1ccc(C(F)(F)F)cc1)c1ccccc1Cl` (stereo not shown) [Example 305], the logP is 3.63^[c];.

The data set is the same for the next values; noted with them: HPLC-MS, method [b]: pH 2.7, 0.1% formic acid / acetonitrile; read-out: log P^b).
As for `O=C(N[C@@H]1C[C@]1(F)c1ccc(Cl)cc1)c1c(F)cccc1F` (relative stereo) [Compound 750, rel-N-[(1R,2S)-2-(4-chlorophenyl)-2-fluorocyclopropyl]-2,6-difluorobenzamide], the chromatographic logP came to 2.69.

Still in this data set, the particulars now being: method [b], HPLC reversed phase, pH 2.7.
Take `Cn1nc(C(F)F)c(C(=O)NC2CC2c2ccc(F)cc2)c1F` (stereo not shown) [Example 188]: the logP was 2.59^[b]. On the same count and under the same terms, the value for `Cn1nc(C(F)F)c(C(=O)N(C2CC2)C2CCCCC2c2ccccc2Cl)c1F` (stereo not shown) [Example 169] was 4.49^[b]; that for `O=C(N[C@@H]1CCC[C@H]1c1ccc(F)c(F)c1)C1=C(C(F)(F)F)OCCS1` (relative stereo) [Example 130] was 3.39^[b]. Still for that read-out and setting: as for `Cc1nc(C(F)(F)F)c(C(=O)N[C@@H]2CCC[C@H]2c2ccc(F)c(F)c2)s1` (relative stereo) [Example 128], the figure is 3.42^[b]; as for `Cn1nc(C(F)F)c(C(=O)NC2CCCCC2c2ccccc2)c1F` (stereo not shown) [Example 181], 3.13^[b]. Still for that read-out and setting: as for `O=C(NC1CC1c1ccccc1C(F)(F)F)c1ccccc1C(F)(F)F` (stereo not shown) [Example 233], the figure is 3.29^[b]; as for `Cn1cc(C(=O)N(C2CC2)C2CCCC2c2ccccc2Cl)c(C(F)F)n1` (stereo not shown) [Example 156], 3.85^[b].

The data set is the same for the next values; noted with them: reversed phase HPLC columns, pH 2.7, HPLC on reversed phase columns, method [b] (pH 2.7); read-out: logP.
Turning to `O=C(N[C@@H]1CC[C@@H]1c1c(Cl)cccc1Cl)c1ccccc1Cl` [Example 742], the chromatographic logP came out at 3.56. Turning to `O=C(N[C@@H]1CC[C@@H]1c1c(Cl)cccc1Cl)c1ncccc1Cl` [Example 743], the chromatographic logP amounted to 3.32.

Staying with this data set, now noted: reversed phase HPLC columns, pH 2.7, HPLC reversed phase, method [b] (pH 2.7); read-out: logP.
As to `O=C(N[C@@H]1CC[C@@H]1c1ccccc1Cl)c1ccc(Cl)cc1` [Example 455], the chromatographic logP was found to be 3.35. The same measure, in the same setting: as for `O=C(NC1CCCC1c1ccc(Cl)cc1)c1cccnc1C(F)(F)F` (stereo not shown) [Example 283], the figure is 2.83.
